Measurements as given in US20210220367A1, “INHALABLE FORMULATION OF A SOLUTION CONTAINING GLYCOPYRROLATE AND OLODATEROL HYDROCHLORIDE” (priority 2020, published 2021).

Test: Aerodynamic particle size distribution, Next Generation Pharmaceutical Impactor (NGI)
Type: physicochemical
Conditions: sample 2 (GB 1.13 mg/ml; pH 3.0), soft mist inhaler, NGI 30 L/minute, RH 90%, HPLC per active
Method: The aerodynamic particle size distribution was determined using a Next Generation Pharmaceutical Impactor (NGI). The soft mist inhaler was held close to the NGI inlet until no aerosol was visible. The flow rate of the NGI was set to 30 L/minute and was operated under ambient temperature and a relative humidity (RH) of 90%.
The solution of sample 2 was discharged into the NGI. Fractions of the dose were deposited at different stages of the NGI, in accordance with the particle size of the fraction. Each fraction was washed from the stage and analyzed using HPLC.
The particle size distribution was expressed in terms of mass median aerodynamic diameter (MMAD) and Geometric Standard Deviation (GSD). […] The sample is sample 2 as described in Example 4 (GB 1.13 mg/ml; pH 3.0). The aerodynamic particle size distribution of sample 2 was investigated by means of the original research device of TB-OH and a new generation of cascade impactor.

Compound | GSD | MMAD (μm)
COc1ccc(CC(C)(C)NC[C@H](O)c2cc(O)cc3c2OCC(=O)N3)cc1.Cl [Olodaterol hydrochloride, 2H-1,4-Benzoxazin-3H(4H)-one, 6-hydroxy-8-[(1R)-1-hydroxy-2-[[2-(4-methoxyphenyl)-1,1-dimethylethyl]-amino]ethyl], monohydrochloride] | 1.79 | 4.01 μm
(3RS)-3-[(2SR)-(2-cyclopentyl-2-hydroxy-2-penylacetyl)oxy]-1,1-dimethlypyrrolidinium bromide [Glycopyrrolate] | 1.77 | 4.05 μm
